{"source": "patent EP3057951B1", "about": "“METHYLENE LINKED QUINOLINYL MODULATORS OF ROR-GAMMA-T” (Janssen Pharmaceutica NV, priority 2013, dated 2015)", "note": "Where a name gives a salt, the structure may show the parent alone."}
{"molecular_target": "T1, wild type human RORγt ligand binding domain (RORyt LBD) (Homo sapiens, UniProt P51449)", "T1 construct": "His-tag (N); TurboTEV protease cleavage site (ENLYFQG) (N); made in house; host or cells: E. coli (pHIS1, modified pET vector)", "T1 sequence (P51449 258-518)": "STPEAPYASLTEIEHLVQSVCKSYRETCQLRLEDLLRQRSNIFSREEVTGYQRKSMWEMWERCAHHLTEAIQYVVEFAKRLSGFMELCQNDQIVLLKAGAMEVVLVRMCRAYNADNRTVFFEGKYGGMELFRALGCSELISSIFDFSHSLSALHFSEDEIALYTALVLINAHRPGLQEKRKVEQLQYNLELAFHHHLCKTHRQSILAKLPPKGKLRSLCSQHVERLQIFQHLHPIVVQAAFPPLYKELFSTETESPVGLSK", "experiment": "RORγt ThermoFluor assay (thermal shift, binding affinity KD)", "units": {"Kd": "nM"}}
{"smiles": "COc1nc2ccc(C(O)(c3cnnn3C)C3CN(C(N)=O)C3)cc2c(Cl)c1Cc1ccc(C(F)(F)F)cc1", "note": "(centres unmarked) [Example 91, 3-((4-Chloro-2-methoxy-3-(4-(trifluoromethyl)benzyl)quinolin-6-yl)(hydroxy)(1-methyl-1H-1,2,3-triazol-5-yl)methyl)azetidine-1-carboxamide]", "Kd": 0.2}
{"smiles": "CC(=O)N1CC(C(O)(c2ccc3nc(C)c(Cc4ccc(C(F)(F)F)cc4)c(Cl)c3c2)c2cnnn2C)C1", "note": "(centres unmarked) [Example 32a, 1-(3-((4-Chloro-2-methyl-3-(4-(trifluoromethyl)benzyl)quinolin-6-yl)(hydroxy)(1-methyl-1H-1,2,3-triazol-5-yl)methyl)azetidin-1-yl)ethanone]", "Kd": 1.1}
{"smiles": "COc1nc2ccc(C(O)(c3ccc(C)nc3C)c3cnc(C)n3C)cc2c(Cl)c1Cc1ccc(C(F)(F)F)nc1", "note": "(single isomer, unassigned) [Example 42b, (4-Chloro-2-methoxy-3-((6-(trifluoromethyl)pyridin-3-yl)methyl)quinolin-6-yl)(1,2-dimethyl-1H-imidazol-5-yl)(2,6-dimethylpyridin-3-yl)methanol]", "Kd": 970}
{"smiles": "COc1nc2ccc(C(O)(c3cnc(C)n3C)C3CCOCC3)cc2c(Cl)c1Cc1ccc(C(F)(F)F)cc1", "note": "(single isomer, unassigned) [Example 86b, (4-Chloro-2-methoxy-3-(4-(trifluoromethyl)benzyl)quinolin-6-yl)(1,2-dimethyl-1H-imidazol-5-yl)(tetrahydro-2H-pyran-4-yl)methanol]", "Kd": 27}
{"smiles": "COc1nc2ccc(C(O)(c3cnc(C)n3C)c3cnc(C)n3C)cc2c(Cl)c1Cc1ccc(F)cc1", "note": "[Example 67, (4-Chloro-3-(4-fluorobenzyl)-2-methoxyquinolin-6-yl)bis(1,2-dimethyl-1H-imidazol-5-yl)methanol]", "Kd": 0.1}
{"smiles": "COc1nc2ccc(C(O)(c3ccc(C)nc3C)c3cnc(C)n3C)cc2c(Cl)c1Cc1ccc(C(F)(F)F)nc1", "note": "(centres unmarked) [Example 42a, (4-Chloro-2-methoxy-3-((6-(trifluoromethyl)pyridin-3-yl)methyl)quinolin-6-yl)(1,2-dimethyl-1H-imidazol-5-yl)(2,6-dimethylpyridin-3-yl)methanol]", "Kd": 0.38}
{"smiles": "COc1nc2ccc(C(O)(c3cnnn3C)C3CN(C)C3)cc2c(Cl)c1Cc1ccc(C(F)(F)F)cc1", "note": "(racemic) [Example 90a, (4-Chloro-2-methoxy-3-(4-(trifluoromethyl)benzyl)quinolin-6-yl)(1-methyl-1H-1,2,3-triazol-5-yl)(1-methylazetidin-3-yl)methanol]", "Kd": 5}
{"smiles": "CCc1nc2ccc(C(O)(c3cnnn3C)C3CCOCC3)cc2c(Cl)c1Cc1ccc(C(F)(F)F)cc1", "note": "(single isomer, unassigned) [Example 33b, (4-Chloro-2-ethyl-3-(4-(trifluoromethyl)benzyl)quinolin-6-yl)(1-methyl-1H-1,2,3-triazol-5-yl)(tetrahydro-2H-pyran-4-yl)methanol]", "Kd": 0.08}
{"smiles": "Cc1nc2ccc(C(O)(c3cnnn3C)c3cnc(C)n3C)cc2c(Cl)c1Cc1ccc(C(F)(F)F)cc1", "note": "(single isomer, unassigned) [Example 29c, (4-Chloro-2-methyl-3-(4-(trifluoromethyl)benzyl)quinolin-6-yl)(1,2-dimethyl-1H-imidazol-5-yl)(1-methyl-1H-1,2,3-triazol-5-yl)methanol]", "Kd": 0.15}
{"smiles": "Cc1nc2ccc(C(O)(c3ccnc(C(F)(F)F)c3)c3cncn3C)cc2c(Cl)c1Cc1ccc(C(F)(F)F)cc1", "note": "(single isomer, unassigned) [Example 30c, (4-Chloro-2-methyl-3-(4-(trifluoromethyl)benzyl)quinolin-6-yl)(1-methyl-1H-imidazol-5-yl)(2-(trifluoromethyl)pyridin-4-yl)methanol]", "Kd": 0.092}
{"smiles": "CC(=O)N1CCC(C(O)(c2ccccc2)c2ccc3nc(C)c(Cc4ccc(C(F)(F)F)cc4)c(Cl)c3c2)CC1", "note": "(single isomer, unassigned) [Example 27c, 1-(4-((4-Chloro-2-methyl-3-(4-(trifluoromethyl)benzyl)quinolin-6-yl)(hydroxy)(phenyl)methyl)piperidin-1-yl)ethanone]", "Kd": 14}
{"smiles": "COc1nc2ccc(C(O)(c3cnc(C)n3C)c3cnc(C)n3C)cc2c(C#N)c1Cc1cccc(C(F)(F)F)c1", "note": "[Example 9, 6-(bis(1,2-Dimethyl-1H-imidazol-5-yl)(hydroxy)methyl)-2-methoxy-3-(3-(trifluoromethyl)benzyl)quinoline-4-carbonitrile•TFA]", "Kd": 0.055}
{"smiles": "CCc1nc2ccc(C(O)(c3cnc(C)n3C)c3cnc(C)n3C)cc2c(C#N)c1Cc1ccc(C(F)(F)F)cc1", "note": "[Example 8, 6-(bis(1,2-Dimethyl-1H-imidazol-5-yl)(hydroxy)methyl)-2-ethyl-3-(4-(trifluoromethyl)benzyl)quinoline-4-carbonitrile.TFA]", "Kd": 0.009}
{"smiles": "COc1nc2ccc(C(O)(c3ccccn3)c3cncn3C)cc2c(Cl)c1Cc1ccc(S(C)(=O)=O)cc1", "note": "(single isomer, unassigned) [Example 58c, (4-Chloro-2-methoxy-3-(4-(methylsulfonyl)benzyl)quinolin-6-yl)(1-methyl-1H-imidazol-5-yl)(pyridin-2-yl)methanol]", "Kd": 370}
{"smiles": "COc1nc2ccc(C(O)(c3cnc(C)n3C)c3cnc(C)n3C)cc2c(Cl)c1Cc1ccc(OC(F)(F)F)cc1", "note": "[Example 76, (4-chloro-2-methoxy-3-(4-(trifluoromethoxy)benzyl)quinolin-6-yl)bis(1,2-dimethyl-1H-imidazol-5-yl)methanol]", "Kd": 0.03}
{"smiles": "COc1nc2ccc(C(O)(c3ccccn3)c3cncn3C)cc2c(Cl)c1Cc1cc2ccccc2s1", "note": "(single isomer, unassigned) [Example 59b, (3-(Benzo[b]thiophen-2-ylmethyl)-4-chloro-2-methoxyquinolin-6-yl)(1-methyl-1H-imidazol-5-yl)(pyridin-2-yl)methanol]", "Kd": 34}
{"smiles": "COc1nc2ccc(C(O)(c3ccc(C)nc3C)c3cnc(C)n3C)cc2c(Cl)c1Cc1ccc(C(F)(F)F)nc1", "note": "(single isomer, unassigned) [Example 42c, (4-Chloro-2-methoxy-3-((6-(trifluoromethyl)pyridin-3-yl)methyl)quinolin-6-yl)(1,2-dimethyl-1H-imidazol-5-yl)(2,6-dimethylpyridin-3-yl)methanol]", "Kd": 0.18}
{"smiles": "Cc1nc2ccc(C(O)(c3cnnn3C)c3cnc(C)n3C)cc2c(Cl)c1Cc1ccc(C(F)(F)F)cc1", "note": "(single isomer, unassigned) [Example 29b, (4-Chloro-2-methyl-3-(4-(trifluoromethyl)benzyl)quinolin-6-yl)(1,2-dimethyl-1H-imidazol-5-yl)(1-methyl-1H-1,2,3-triazol-5-yl)methanol]", "Kd": 0.04}
{"smiles": "COc1nc2ccc(C(O)(c3ccc(C(F)(F)F)nc3)c3cnnn3C)cc2c(Cl)c1Cc1ccc(C(F)(F)F)cc1", "note": "(single isomer, unassigned) [Example 75b, (4-Chloro-2-methoxy-3-(4-(trifluoromethyl)benzyl)quinolin-6-yl)(1-methyl-1H-1,2,3-triazol-5-yl)(6-(trifluoromethyl)pyridin-3-yl)methanol]", "Kd": 6.8}
{"smiles": "COc1nc2ccc(C(O)(c3cnnn3C)C3CN(C)C3)cc2c(Cl)c1Cc1ccc(C(F)(F)F)cc1", "note": "(single isomer, unassigned) [Example 90c, (4-Chloro-2-methoxy-3-(4-(trifluoromethyl)benzyl)quinolin-6-yl)(1-methyl-1H-1,2,3-triazol-5-yl)(1-methylazetidin-3-yl)methanol]", "Kd": 3.4}
